Data taken from PubChem BioAssay (NCI).
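Method: 48-hour compound exposure of cells in 96-well plates, five concentrations, linear interpolation of endpoints. TGI is the concentration that stops growth completely.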

Legend:
Assay in all cases: growth of human tumour cells (NCI), 48 h
BT-549 breast = tested on: BT-549 breast
DU-145 prostate = tested on: DU-145 prostate
HCT-15 colon = tested on: HCT-15 colon
HOP-62 NSCLC = tested on: HOP-62 NSCLC
K-562 leukemia = tested on: K-562 leukemia
MALME-3M melanoma = tested on: MALME-3M melanoma
MDA-N = tested on: MDA-N
NCI-H23 lung = tested on: NCI-H23 lung
NCI-H460 lung = tested on: NCI-H460 lung
OVCAR-3 ovarian = tested on: OVCAR-3 ovarian
OVCAR-5 ovarian = tested on: OVCAR-5 ovarian
OVCAR-8 ovarian = tested on: OVCAR-8 ovarian
PC-3 prostate = tested on: PC-3 prostate
RXF 393 renal = tested on: RXF 393 renal
SF-268 CNS = tested on: SF-268 CNS
SK-MEL-5 melanoma = tested on: SK-MEL-5 melanoma
U251 CNS = tested on: U251 CNS
UACC-257 melanoma = tested on: UACC-257 melanoma
UO-31 renal = tested on: UO-31 renal

| SMILES | TGI (BT-549 breast) [µM] | TGI (DU-145 prostate) [µM] | TGI (HCT-15 colon) [µM] | TGI (HOP-62 NSCLC) [µM] | TGI (K-562 leukemia) [µM] | TGI (MALME-3M melanoma) [µM] | TGI (MDA-N) [µM] | TGI (NCI-H23 lung) [µM] | TGI (NCI-H460 lung) [µM] | TGI (OVCAR-3 ovarian) [µM] | TGI (OVCAR-5 ovarian) [µM] | TGI (OVCAR-8 ovarian) [µM] | TGI (PC-3 prostate) [µM] | TGI (RXF 393 renal) [µM] | TGI (SF-268 CNS) [µM] | TGI (SK-MEL-5 melanoma) [µM] | TGI (U251 CNS) [µM] | TGI (UACC-257 melanoma) [µM] | TGI (UO-31 renal) [µM] |
| --- | --- | --- | --- | --- | --- | --- | --- | --- | --- | --- | --- | --- | --- | --- | --- | --- | --- | --- | --- |
| Cc1cc(S(=O)(=O)NC2=NC(c3ccccc3)c3ccccc3N2)c(S)cc1Cl (centres undefined) | > 100 | > 100 | > 100 | > 100 | > 100 | > 100 | > 100 | > 100 | > 100 | > 100 | > 100 | > 100 | 80.9 | > 100 | > 100 | > 100 | > 100 | > 100 | 46.5 |
| C/C=C/C(C#N)(Cc1ccccc1)OP1(=O)OC(c2ccccc2)C(C)N1C (centres undefined) | > 100 | > 100 | > 100 | > 100 | > 100 | > 100 | > 100 | > 100 | > 100 | > 100 | > 100 | > 100 | > 100 | > 100 | > 100 | > 100 | > 100 | > 100 | > 100 |
| CN1C(=O)c2c(c3c4ccccc4n(C4OC(CO)C(O)C(O)C4O)c3c3[nH]c4ccccc4c23)C1=O (centres undefined) | 33.8 | 9.66 | 17.4 | 9.51 | > 100 | 1.44 | 7.24 | 9.6 | 12.1 | 5.37 | 6.67 | 4.19 | 9.62 | 8.96 | 4.85 | 3.29 | 10.8 | 7.36 | 6.6 |
| CO[C@@H]1C=C[C@@]23c4cc5c(cc4C(O)N(CC2O)C3C1)OCO5 (some centres undefined) | 20.5 | 50.7 | 39.3 | > 100 | > 100 | > 100 | 26.1 | 56.1 | 12.9 | 58.8 | 79.3 | > 100 | 17.5 | 50.3 | > 100 | 6.01 | 16.6 | 5.9 | 36.8 |
| COc1ccc([C@H]2C=C(c3cc(F)c(Cl)cc3Cl)NC(=S)N2)cc1 | > 100 | > 100 | > 100 | > 100 | > 100 | > 100 | 33.2 | > 100 | 54.3 | > 100 | > 100 | > 100 | 65.7 | 79.9 | > 100 | 27.2 | 95.8 | 76.2 | > 100 |
| NC1CC(=O)c2csc(Cl)c21 (centres undefined) | 33.4 | 20.9 | 14.2 | 29.1 | > 100 | 7.56 | 22 | 54 | 49.5 | 30.9 | 37.1 | 23 | 23.9 | 17.8 | 31.8 | 35.3 | 22.9 | 29 | 12.7 |
